This is an account of results in PubChem BioAssay AID1033 (Sanford-Burnham Center for Chemical Genomics, 2008).

The source made the active and inactive calls. The rule behind the calls is not given here.

The target in this test is Chaperone protein DnaK (Escherichia coli (strain K12)) (UniProt P0A6Y8). The test can be described thus: E. coli DnaK SBD ligand binding – biophysical, NMR, chaperone (AID 1033). As to conditions: Purified DnaK SBD.
Chain of Chaperone protein DnaK (Escherichia coli (strain K12)) (P0A6Y8 whole entry, looked up): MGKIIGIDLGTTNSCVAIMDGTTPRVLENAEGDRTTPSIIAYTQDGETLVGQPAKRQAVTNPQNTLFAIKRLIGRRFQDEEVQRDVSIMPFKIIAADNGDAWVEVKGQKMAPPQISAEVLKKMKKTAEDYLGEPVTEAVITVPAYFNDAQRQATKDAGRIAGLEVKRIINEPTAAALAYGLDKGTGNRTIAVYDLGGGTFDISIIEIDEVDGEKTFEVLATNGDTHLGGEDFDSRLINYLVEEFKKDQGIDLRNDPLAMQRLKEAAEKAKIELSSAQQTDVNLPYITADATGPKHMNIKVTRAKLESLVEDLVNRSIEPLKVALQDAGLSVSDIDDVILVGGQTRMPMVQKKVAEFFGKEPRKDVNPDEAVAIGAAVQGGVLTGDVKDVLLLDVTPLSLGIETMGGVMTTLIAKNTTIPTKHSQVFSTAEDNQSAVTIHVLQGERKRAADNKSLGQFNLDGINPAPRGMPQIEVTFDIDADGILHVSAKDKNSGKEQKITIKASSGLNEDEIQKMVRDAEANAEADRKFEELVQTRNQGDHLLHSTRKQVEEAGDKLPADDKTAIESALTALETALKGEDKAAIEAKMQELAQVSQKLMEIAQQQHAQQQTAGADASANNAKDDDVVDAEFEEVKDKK
`O=c1[nH]c(CN2CCN(CCO)CC2)nc2ccccc12`: the Kd is > 4 mM (inactive).
Take `O=S1(=O)CCC(Nc2ccccc2)C1` (stereo not given): the Kd was > 4 mM (inactive).
Under `O=c1c2ccccc2ncn1C1CCCCC1` stands > 4 mM (inactive); under `Cc1cc(OC(=O)c2ccco2)c([N+](=O)[O-])c(=O)[nH]1`, > 4 mM (inactive).
Under `CC(=O)Nc1ccc(S(=O)(=O)N2CCN=C2C)cc1` stands > 4 mM (inactive); under `CCc1cccc(C)c1NC(=O)c1cc(C)oc1C`, > 4 mM (inactive); under `Cc1c(C(=O)Nn2cnnc2)oc2ccccc12`, > 4 mM (inactive).
Under `CC(C)=NNC(=O)c1ccccc1` stands > 4 mM (inactive); under `O=C1CNC(=O)/C1=C/c1ccc(O)cc1`, > 4 mM (inactive).
In the case of `COc1ccc(-c2cc(=O)c3c(OC)c(OC)c(OC)c(OC)c3o2)cc1OC`, the Kd was > 4 mM (inactive).
Under `CCC1(CC)C(=O)NC(=O)N=C1N` stands > 4 mM (inactive); under `CCOC(=O)c1cnc2n(c1=O)CCS2`, > 4 mM (inactive).
Under `COCC(=O)Nc1cc2c3c(c1)CCN3C(=O)CC2` stands > 4 mM (inactive); under `Nc1nc(-c2ccc(F)c(F)c2)cs1`, > 4 mM (inactive).
Under `NC(=O)c1ccccc1NC(=O)C1CCCO1` (stereo not given) stands > 4 mM (inactive); under `Cc1nccc(-c2cccc(N)c2)n1`, > 4 mM (inactive); under `CC1=C(C(N)=O)C(c2ccco2)C(C(N)=O)=C(C)N1`, > 4 mM (inactive).
Take `CC(C)NC(=O)c1cc(-n2cnnc2)ccc1Cl`: the Kd is > 4 mM (inactive).
Under `O=C(NCc1ccccc1Br)c1cccs1` stands less than 0.2 mM.
As for `Cc1cc(=O)[nH]c(NCc2cccnc2)n1`, the Kd was > 4 mM (inactive).
Under `CC(C)(C(N)=O)/[N+]([O-])=C\c1ccccc1` stands > 4 mM (inactive).
For the molecule `CCCCCCCCCCCCCCC(C(=O)OC)C(O)(CC(=O)OC)C(=O)OC` (stereo not given), the Kd was > 4 mM (inactive).
As to `Cn1c(=O)[nH]c(=O)c2c1ncn2CCN1CCCCC1`, the Kd is > 4 mM (inactive).
For the molecule `COC(=O)C1=CCCN(C)C1`, the Kd is > 4 mM (inactive).
Under `COC(=O)[C@]1(C)CC[C@]2(C)CC[C@]3(C)C4=CCc5c(cc(O)c(O)c5C)[C@]4(C)CC[C@@]3(C)C2C1` (stereo not given in full) stands > 4 mM (inactive); under `O=C1CSC(=Nc2ccc(C(=O)O)cc2)N1`, > 4 mM (inactive).
Under `Nc1ncnc(Cl)c1[N+](=O)[O-]` stands > 4 mM (inactive); under `C=CCN1CC[C@]23c4c5ccc(O)c4OC2C(=O)CC[C@@]3(O)[C@H]1C5` (stereo not given in full), > 4 mM (inactive); under `O=C(O)C1CSC(c2cccnc2)N1` (stereo not given), > 4 mM (inactive).
Under `C=C[C@H]1CN2CC[C@H]1C[C@@H]2[C@@H](O)c1ccnc2ccc(OC)cc12` stands > 4 mM (inactive); under `Nc1cc(N)nc(SCc2ccccc2)n1`, > 4 mM (inactive); under `O=C(O)c1cc(O)c2c(c1)C(=O)c1cc(O)cc(O)c1C2=O`, > 4 mM (inactive).
Take `O=C(Cc1c(F)cccc1Cl)Nc1ccon1`: the Kd was > 4 mM (inactive).
Under `O=c1ccn(Cc2ccccc2)c(=O)[nH]1` stands > 4 mM (inactive); under `COC1=C(OC)C(=O)C(C/C=C(\C)CC/C=C(\C)CC/C=C(\C)CC/C=C(/C)CC/C=C(\C)CC/C=C(\C)CC/C=C(\C)CC/C=C(\C)CC/C=C(\C)CCC=C(C)C)=C(C)C1=O`, > 4 mM (inactive).
Under `c1ccc(C[N+]23CCN(CC2)c2ccccc23)cc1` stands > 4 mM (inactive).
Under `CC(=O)N1CCn2c3c(c(=O)c4cc(C)ccc42)CCC31` (stereo not given) stands > 4 mM (inactive).
Consider `O=C(NCO)c1ccccc1Cl`, for which the Kd was > 4 mM (inactive).
For the molecule `OCc1csc(-c2ccccc2)n1`, the Kd was > 4 mM (inactive).
Under `Cc1nnc2n(c1=O)N=C(c1ccccc1)CS2` stands > 4 mM (inactive).

One may read the Kd as the constant that tells how readily two partners part at equilibrium.
